Reference: ChEMBL document CHEMBL1201862, “PubChem BioAssay data set” (2004)
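Cultured in 96-well plates, cells were exposed to test compound for 48 hours across five concentrations. Here, GI50 denotes the concentration required for 50% inhibition of growth.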 Activity calls are given as the source filed them. Cut-off read from the data, not from the text of the source: active = GI50 up to about 1.1 µM and inactive = higher.

Assays:
Assay in all cases: growth of human tumour cells (NCI), 48 h
HOP-62 = system: HOP-62
SK-OV-3 = system: SK-OV-3
UO-31 = system: UO-31
HCT-116 = system: HCT-116
T47D = system: T47D
UACC-62 = system: UACC-62
RPMI-8226 = system: RPMI-8226
CAKI-1 = system: CAKI-1
NCI-H23 = system: NCI-H23
K562 = system: K562
PC-3 = system: PC-3
NCI-H460 = system: NCI-H460
NCI/ADR-RES = system: NCI/ADR-RES
SF-295 = system: SF-295
786-0 = system: 786-0
ACHN = system: ACHN
SW-620 = system: SW-620
HOP-92 = system: HOP-92
IGROV-1 = system: IGROV-1
UACC-257 = system: UACC-257

Measured: GI50

CC(=O)c1ccc(Oc2c3ccccc3nc3ccccc23)cc1
inactive: HOP-62 14.4 µM | SK-OV-3 15.7 µM | UO-31 3.83 µM | HCT-116 2.7 µM | T47D 3.72 µM | UACC-62 6.41 µM | RPMI-8226 2.77 µM | CAKI-1 4.69 µM | NCI-H23 22.5 µM | K562 3.41 µM | PC-3 6.89 µM | NCI-H460 15.4 µM | NCI/ADR-RES 11.3 µM | SF-295 14.6 µM | 786-0 3.4 µM | ACHN 4.15 µM | SW-620 4.33 µM | HOP-92 12.4 µM | IGROV-1 4.89 µM | UACC-257 5.68 µM

Nc1ccc2c(SCC(=O)Nc3ccccc3-c3ccccc3NC(=O)CSc3c4ccccc4nc4cc(N)ccc34)c3ccccc3nc2c1
inactive: HOP-62 33.7 µM | SK-OV-3 43.2 µM | UO-31 20 µM | HCT-116 24.5 µM | T47D 3.05 µM | UACC-62 18.9 µM | RPMI-8226 8.47 µM | CAKI-1 45.5 µM | NCI-H23 18 µM | K562 2.71 µM | PC-3 22.2 µM | NCI-H460 29.2 µM | NCI/ADR-RES 32.6 µM | SF-295 31.5 µM | 786-0 25.3 µM | ACHN 32.8 µM | SW-620 29.6 µM | HOP-92 43.5 µM | IGROV-1 27 µM | UACC-257 24.4 µM

COc1ncnc2c(Cl)c(C(O)c3ccccc3)c(Cl)cc12 (stereo unspecified)
inactive: HOP-62 15.2 µM | SK-OV-3 19.5 µM | UO-31 37.3 µM | HCT-116 17.9 µM | T47D 40.1 µM | UACC-62 16.1 µM | RPMI-8226 18.7 µM | CAKI-1 34.7 µM | NCI-H23 41.6 µM | K562 14.9 µM | PC-3 27.4 µM | NCI-H460 30.8 µM | NCI/ADR-RES 28 µM | SF-295 24.4 µM | ACHN 26.4 µM | SW-620 25.6 µM | HOP-92 15.7 µM | IGROV-1 29.3 µM | UACC-257 > 100 µM

COc1ccc(/C=C/C(=O)N[C@@H]2C(=O)N3[C@@H]2SC(C)(C)[C@@H]3C(=O)O)cc1OC
inactive: HOP-62 > 100 µM | SK-OV-3 > 100 µM | UO-31 > 100 µM | HCT-116 > 100 µM | T47D > 100 µM | UACC-62 > 100 µM | RPMI-8226 > 100 µM | CAKI-1 > 100 µM | NCI-H23 > 100 µM | K562 > 100 µM | PC-3 > 100 µM | NCI-H460 > 100 µM | NCI/ADR-RES > 100 µM | SF-295 > 100 µM | 786-0 > 100 µM | ACHN > 100 µM | SW-620 > 100 µM | HOP-92 > 100 µM | UACC-257 > 100 µM

CN(C)CCSS(=O)(=O)O
inactive: HOP-62 15.4 µM | SK-OV-3 29.4 µM | UO-31 > 100 µM | HCT-116 > 100 µM | T47D > 100 µM | UACC-62 > 100 µM | RPMI-8226 > 100 µM | CAKI-1 > 100 µM | NCI-H23 > 100 µM | K562 > 100 µM | PC-3 > 100 µM | NCI-H460 16 µM | NCI/ADR-RES > 100 µM | SF-295 13.3 µM | 786-0 > 100 µM | ACHN > 100 µM | SW-620 > 100 µM | HOP-92 > 100 µM | IGROV-1 > 100 µM

O=C(N/N=C(COc1ccccc1)\N=C\c1ccncc1)c1ccncc1
inactive: HOP-62 > 100 µM | SK-OV-3 > 100 µM | HCT-116 > 100 µM | T47D > 100 µM | UACC-62 > 100 µM | RPMI-8226 97.5 µM | CAKI-1 > 100 µM | NCI-H23 > 100 µM | K562 > 100 µM | PC-3 > 100 µM | NCI-H460 > 100 µM | NCI/ADR-RES > 100 µM | SF-295 > 100 µM | 786-0 > 100 µM | ACHN > 100 µM | SW-620 > 100 µM | HOP-92 68.7 µM | IGROV-1 > 100 µM | UACC-257 > 100 µM

Cc1occc1C(=S)Nc1ccc(Cl)c(C(=O)OCC(C)C)c1
inactive: SK-OV-3 20.9 µM | UO-31 17.7 µM | HCT-116 14.4 µM | T47D 12.8 µM | UACC-62 12.6 µM | RPMI-8226 19.4 µM | CAKI-1 21.5 µM | NCI-H23 17.1 µM | K562 12.1 µM | PC-3 16.1 µM | NCI-H460 22.3 µM | NCI/ADR-RES 12.9 µM | SF-295 16.6 µM | 786-0 16.7 µM | ACHN 17.9 µM | SW-620 19.2 µM | HOP-92 17.4 µM | IGROV-1 18.1 µM | UACC-257 17.9 µM

Cc1cc2c(nn1)-c1ccccc1C2=O
inactive: HOP-62 > 10 µM | SK-OV-3 > 10 µM | UO-31 > 10 µM | HCT-116 > 10 µM | T47D > 10 µM | UACC-62 > 10 µM | RPMI-8226 > 10 µM | CAKI-1 > 10 µM | NCI-H23 > 10 µM | K562 > 10 µM | PC-3 > 10 µM | NCI-H460 > 10 µM | NCI/ADR-RES > 10 µM | SF-295 > 10 µM | 786-0 > 10 µM | ACHN > 10 µM | SW-620 > 10 µM | HOP-92 > 10 µM | IGROV-1 > 10 µM

C[C@H](NC1=C(Cl)C(=O)c2c(O)ccc(O)c2C1=O)C(=O)Nc1ccc([N+](=O)[O-])cc1
inactive: HOP-62 2.45 µM | SK-OV-3 6.89 µM | HCT-116 1.41 µM | T47D 3.25 µM | UACC-62 2.4 µM | RPMI-8226 1.84 µM | CAKI-1 4.13 µM | NCI-H23 2.02 µM | K562 10 µM | PC-3 3.41 µM | NCI-H460 2.06 µM | NCI/ADR-RES 1.81 µM | SF-295 1.89 µM | 786-0 1.6 µM | ACHN 2.94 µM | SW-620 3.05 µM | HOP-92 2.08 µM | IGROV-1 2.5 µM | UACC-257 1.95 µM

CCCN1C(=O)CC(C)N(Cc2ccccc2Cl)C1=S (stereo unspecified)
inactive: HOP-62 35.4 µM | SK-OV-3 31.9 µM | HCT-116 24.7 µM | T47D 10.6 µM | UACC-62 19.1 µM | RPMI-8226 24.8 µM | CAKI-1 36.9 µM | NCI-H23 23.5 µM | PC-3 22.8 µM | NCI-H460 31 µM | NCI/ADR-RES 21.2 µM | SF-295 31.9 µM | 786-0 36.4 µM | ACHN 24.5 µM | SW-620 30.8 µM | HOP-92 24.2 µM | IGROV-1 33.4 µM | UACC-257 17.2 µM
